{"source": "patent US9290485B2", "about": "“N-((6-amino-pyridin-3-yl)methyl)-heteroaryl-carboxamides” (NOVARTIS AG, priority 2010, dated 2016)"}
{"molecular_target": "human plasma kallikrein (Homo sapiens (Human), UniProt P03952)", "sequence (P03952 whole entry, looked up)": "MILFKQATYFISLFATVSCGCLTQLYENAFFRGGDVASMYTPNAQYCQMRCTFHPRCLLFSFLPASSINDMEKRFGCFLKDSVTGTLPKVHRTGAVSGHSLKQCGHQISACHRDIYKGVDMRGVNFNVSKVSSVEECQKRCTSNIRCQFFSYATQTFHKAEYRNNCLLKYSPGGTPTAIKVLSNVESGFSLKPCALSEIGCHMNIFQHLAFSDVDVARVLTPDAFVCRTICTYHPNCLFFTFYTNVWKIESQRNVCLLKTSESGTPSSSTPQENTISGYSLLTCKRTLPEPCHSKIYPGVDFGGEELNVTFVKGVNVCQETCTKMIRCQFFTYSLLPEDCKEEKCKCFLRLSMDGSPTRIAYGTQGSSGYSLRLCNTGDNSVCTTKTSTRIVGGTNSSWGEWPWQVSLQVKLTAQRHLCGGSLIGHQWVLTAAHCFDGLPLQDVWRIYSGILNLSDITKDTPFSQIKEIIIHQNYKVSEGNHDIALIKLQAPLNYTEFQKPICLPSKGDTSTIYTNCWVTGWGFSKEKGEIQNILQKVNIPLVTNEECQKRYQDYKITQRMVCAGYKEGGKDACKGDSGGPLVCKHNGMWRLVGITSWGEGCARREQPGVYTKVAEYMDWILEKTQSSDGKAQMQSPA", "sequence (P03952 whole entry partner, looked up)": "as the sequence (P03952 whole entry, looked up) above", "conditions": "human plasma kallikrein 25 pM, substrate 0.5 uM, 1 hour pre-incubation at room temperature, read at t=60 min", "units": {"IC50": "nM"}}
{"smiles": "Cc1cc(N)nc(C)c1CNC(=O)c1cn(Cc2ccccc2)c2ccccc12", "note": "[Example 108, N-((6-amino-2,4-dimethylpyridin-3-yl)methyl)-1-benzyl-1H-indole-3-carboxamide]", "IC50": 798}
{"smiles": "Cc1cc(N)nc(C)c1CNC(=O)c1cc(C)n(Cc2ccccc2)c1C", "note": "[Example 109, N-((6-amino-2,4-dimethylpyridin-3-yl)methyl)-1-benzyl-2,5-dimethyl-1H-pyrrole-3-carboxamide]", "IC50": 1300}
{"smiles": "Cc1cc(N)nc(C)c1CNC(=O)c1cnn(Cc2ccc(CN3CCOCC3)cc2)c1", "note": "[Example 110, N-((6-amino-2,4-dimethylpyridin-3-yl)methyl)-1-(4-(morpholinomethyl)benzyl)-1H-pyrazole-4-carboxamide]", "IC50": 249}
{"smiles": "Cc1cc(N)nc(C)c1CNC(=O)c1cnn(Cc2ccc(C(=O)NC3CCS(=O)(=O)C3)cc2)c1", "note": "(centres unmarked) [Example 111, 1-[4-(1,1-Dioxo-tetrahydro-1lambda*6*-thiophen-3-ylcarbamoyl)-benzyl]-1H-pyrazole-4-carboxylic acid (6-amino-2,4-dimethyl-pyridin-3-ylmethyl)-amide]", "IC50": 2100}
{"smiles": "Cc1cc(N)nc(C)c1CNC(=O)c1cnn(Cc2ccc(NC(=O)NC3CC3)cc2)c1", "note": "[Example 112, N-((6-amino-2,4-dimethylpyridin-3-yl)methyl)-1-(4-(3-cyclopropylureido)benzyl)-1H-pyrazole-4-carboxamide]", "IC50": 229}
{"smiles": "Cc1cc(N)nc(C)c1CNC(=O)c1n[nH]c(Cc2ccccc2)n1", "note": "[Example 113, N-((6-amino-2,4-dimethylpyridin-3-yl)methyl)-5-benzyl-1H-1,2,4-triazole-3-carboxamide]", "IC50": 5800}
{"smiles": "Cc1cc(N)nc(C)c1CNC(=O)c1cnn(Cc2ccc(-c3ccncc3)cc2)c1", "note": "[Example 114, N-((6-amino-2,4-dimethylpyridin-3-yl)methyl)-1-(4-(pyridin-4-yl)benzyl)-1H-pyrazole-4-carboxamide]", "IC50": 30}
{"smiles": "Cc1cc(N)nc(C)c1CNC(=O)c1cnn(Cc2cccc(-c3ccccc3)c2)c1", "note": "[Example 115, N-((6-amino-2,4-dimethylpyridin-3-yl)methyl)-1-(biphenyl-3-ylmethyl)-1H-pyrazole-4-carboxamide]", "IC50": 3.3}
{"smiles": "Cc1cc(N)nc(C)c1CNC(=O)c1cnn(Cc2cccc(S(=O)(=O)N3CCOCC3)c2)c1", "note": "[Example 116, N-((6-amino-2,4-dimethylpyridin-3-yl)methyl)-1-(3-(morpholinosulfonyl)benzyl)-1H-pyrazole-4-carboxamide]", "IC50": 197}
{"smiles": "Cc1cc(N)nc(C)c1CNC(=O)c1cnn(Cc2cccc(C(=O)Nc3ccccc3)c2)c1", "note": "[Example 117, N-((6-amino-2,4-dimethylpyridin-3-yl)methyl)-1-(3-(phenylcarbamoyl)benzyl)-1H-pyrazole-4-carboxamide]", "IC50": 152}
{"smiles": "Cc1cc(N)nc(C)c1CNC(=O)c1cnn(Cc2ccc(CN3CCCC3)cc2)c1", "note": "[Example 118, N-((6-amino-2,4-dimethylpyridin-3-yl)methyl)-1-(4-(pyrrolidin-1-ylmethyl)benzyl)-1H-pyrazole-4-carboxamide]", "IC50": 183}
{"smiles": "Cc1cc(N)nc(C)c1CNC(=O)c1cnn(Cc2cccc(C(=O)N3CCCCC3)c2)c1", "note": "[Example 119, N-((6-amino-2,4-dimethylpyridin-3-yl)methyl)-1-(3-(piperidine-1-carbonyl)benzyl)-1H-pyrazole-4-carboxamide]", "IC50": 289}
{"smiles": "Cc1cc(N)nc(C)c1CNC(=O)c1cnn(Cc2ccc(C(=O)N3CCOCC3)cc2)c1", "note": "[Example 121, N-((6-amino-2,4-dimethylpyridin-3-yl)methyl)-1-(4-(morpholine-4-carbonyl)benzyl)-1H-pyrazole-4-carboxamide]", "IC50": 369}
{"smiles": "Cc1cc(N)nc(C)c1CNC(=O)c1cnn(Cc2ccc(C(=O)Nc3ccn(C)n3)cc2)c1", "note": "[Example 122, N-((6-amino-2,4-dimethylpyridin-3-yl)methyl)-1-(4-(1-methyl-1H-pyrazol-3-ylcarbamoyl)benzyl)-1H-pyrazole-4-carboxamide]", "IC50": 752}
{"smiles": "Cc1cc(N)nc(C)c1CNC(=O)c1n[nH]c([C@@H](N)c2ccccc2)n1", "note": "[Example 123, (S)-5-(amino(phenyl)methyl)-N-((6-amino-2,4-dimethylpyridin-3-yl)methyl)-1H-1,2,4-triazole-3-carboxamide]", "IC50": 15800}
{"smiles": "Cc1cc(N)nc(C)c1CNC(=O)c1nc(Cc2ccc(-c3ccccc3)cc2)n[nH]1", "note": "[Example 124, N-((6-amino-2,4-dimethylpyridin-3-yl)methyl)-3-(biphenyl-4-ylmethyl)-1H-1,2,4-triazole-5-carboxamide]", "IC50": 71}
{"smiles": "Cc1cc(N)nc(C)c1CNC(=O)c1nc(Cc2ccc(Oc3ccccc3)cc2)n[nH]1", "note": "[Example 125, N-((6-amino-2,4-dimethylpyridin-3-yl)methyl)-3-(4-phenoxybenzyl)-1H-1,2,4-triazole-5-carboxamide]", "IC50": 36}
{"smiles": "Cc1cc(N)nc(C)c1CNC(=O)c1cnn(Cc2ccc(S(=O)(=O)N(C)C)cc2)c1", "note": "[Example 126, N-((6-amino-2,4-dimethylpyridin-3-yl)methyl)-1-(4-(N,N-dimethylsulfamoyl)benzyl)-1H-pyrazole-4-carboxamide]", "IC50": 670}
{"smiles": "Cc1cc(N)nc(C)c1CNC(=O)c1ccn(S(=O)(=O)c2ccc(-c3ccccc3)cc2)c1", "note": "[Example 127, N-((6-amino-2,4-dimethylpyridin-3-yl)methyl)-1-(biphenyl-4-ylsulfonyl)-1H-pyrrole-3-carboxamide]", "IC50": 16}
{"smiles": "Cc1cc(N)nc(C)c1CNC(=O)c1ccn(S(=O)(=O)c2ccc(Cl)s2)c1", "note": "[Example 128, N-((6-amino-2,4-dimethylpyridin-3-yl)methyl)-1-(5-chlorothiophen-2-ylsulfonyl)-1H-pyrrole-3-carboxamide]", "IC50": 301}
{"smiles": "COc1cccc(S(=O)(=O)n2ccc(C(=O)NCc3c(C)cc(N)nc3C)c2)c1", "note": "[Example 129, N-((6-amino-2,4-dimethylpyridin-3-yl)methyl)-1-(3-methoxyphenylsulfonyl)-1H-pyrrole-3-carboxamide]", "IC50": 244}
{"smiles": "Cc1cc(N)nc(C)c1CNC(=O)c1ccn(S(=O)(=O)c2ccc3c(c2)N(C)CCO3)c1", "note": "[Example 130, N-((6-amino-2,4-dimethylpyridin-3-yl)methyl)-1-(4-methyl-3,4-dihydro-2H-benzo[b][1,4]oxazin-6-ylsulfonyl)-1H-pyrrole-3-carboxamide]", "IC50": 67}
{"smiles": "Cc1cc(N)nc(C)c1CNC(=O)c1ccn(S(=O)(=O)c2ccc3c(ccn3C)c2)c1", "note": "[Example 131, N-((6-amino-2,4-dimethylpyridin-3-yl)methyl)-1-(1-methyl-1H-indol-5-ylsulfonyl)-1H-pyrrole-3-carboxamide]", "IC50": 9}
{"smiles": "Cc1cc(N)nc(C)c1CNC(=O)c1ccn(S(=O)(=O)c2cccc(-c3ncccn3)c2)c1", "note": "[Example 132, N-((6-amino-2,4-dimethylpyridin-3-yl)methyl)-1-(3-(pyrimidin-2-yl)phenylsulfonyl)-1H-pyrrole-3-carboxamide]", "IC50": 71}
{"smiles": "Cc1cc(C)n(-c2ccc(S(=O)(=O)n3ccc(C(=O)NCc4c(C)cc(N)nc4C)c3)cc2)n1", "note": "[Example 133, N-((6-amino-2,4-dimethylpyridin-3-yl)methyl)-1-(4-(3,5-dimethyl-1H-pyrazol-1-yl)phenylsulfonyl)-1H-pyrrole-3-carboxamide]", "IC50": 196}
{"smiles": "Cc1cc(N)nc(C)c1CNC(=O)c1cnn(Cc2ccc(OCC(=O)O)cc2)c1", "note": "[Example 134, 2-(4-((4-((6-amino-2,4-dimethylpyridin-3-yl)methylcarbamoyl)-1H-pyrazol-1-yl)methyl)phenoxy)acetic acid]", "IC50": 1100}
{"smiles": "Cc1cc(N)nc(C)c1CNC(=O)c1cnn(Cc2ccc(OCC#N)cc2)c1", "note": "[Example 135, N-((6-amino-2,4-dimethylpyridin-3-yl)methyl)-1-(4-(cyanomethoxy)benzyl)-1H-pyrazole-4-carboxamide]", "IC50": 89}
{"smiles": "Cc1nc(N)cc(OCc2ncco2)c1CNC(=O)c1cn(Cc2ccccc2)nn1", "note": "[Example 137, N-((6-amino-2-methyl-4-(oxazol-2-ylmethoxy)pyridin-3-yl)methyl)-1-benzyl-1H-1,2,3-triazole-4-carboxamide]", "IC50": 127}
{"smiles": "Cc1cc(N)ncc1CNC(=O)c1cnn(Cc2ccccc2)c1", "note": "[Example 138, N-((6-amino-4-methylpyridin-3-yl)methyl)-1-benzyl-1H-pyrazole-4-carboxamide]", "IC50": 62700}
{"smiles": "Cc1cc(N)nc(C)c1CNC(=O)c1cnn(Cc2ccc(Cn3ccc(=O)[nH]3)cc2)c1", "note": "[Example 139, N-((6-amino-2,4-dimethylpyridin-3-yl)methyl)-1-(4-((3-oxo-2,3-dihydro-1H-pyrazol-1-yl)methyl)benzyl)-1H-pyrazole-4-carboxamide]", "IC50": 4.9}
{"smiles": "Cc1cc(N)nc(C)c1CNC(=O)c1cnn(Cc2ccc(Cn3ccnn3)cc2)c1", "note": "[Example 140, 1-(4-((1H-1,2,3-triazol-1-yl)methyl)benzyl)-N-((6-amino-2,4-dimethylpyridin-3-yl)methyl)-1H-pyrazole-4-carboxamide]", "IC50": 4.6}
{"smiles": "Cc1cc(N)nc(C)c1CNC(=O)c1cnn(Cc2ccc(Cn3c(C)cc(=O)n3C)cc2)c1", "note": "[Example 141, N-((6-amino-2,4-dimethylpyridin-3-yl)methyl)-1-(4-((2,5-dimethyl-3-oxo-2,3-dihydro-1H-pyrazol-1-yl)methyl)benzyl)-1H-pyrazole-4-carboxamide]", "IC50": 1.2}
{"smiles": "Cc1cc(N)nc(C)c1CNC(=O)c1cnn(Cc2ccc(Cn3ccccc3=O)cc2)c1", "note": "[Example 142, N-((6-amino-2,4-dimethylpyridin-3-yl)methyl)-1-(4-((2-oxopyridin-1(2H)-yl)methyl)benzyl)-1H-pyrazole-4-carboxamide]", "IC50": 0.0224}
{"smiles": "Cc1cc(N)nc(C)c1CNC(=O)c1cnn(Cc2ccc(CN3CCCC3=O)cc2)c1", "note": "[Example 143, N-((6-amino-2,4-dimethylpyridin-3-yl)methyl)-1-(4-((2-oxopyrrolidin-1-yl)methyl)benzyl)-1H-pyrazole-4-carboxamide]", "IC50": 2.6}
{"smiles": "Cc1nc(N)cc(Cl)c1CNC(=O)c1cnn(Cc2ccccc2)c1", "note": "[Example 144, N-((6-amino-4-chloro-2-methylpyridin-3-yl)methyl]-1-benzyl-1H-pyrazole-4-carboxamide]", "IC50": 42400}
